{"source": "patent US10555535B2", "about": "“Pest control composition and pest control method” (SUMITOMO CHEMICAL COMPANY, LIMITED, priority 2015, dated 2020)", "key": {"Aphis gossypii": {"system": "Aphis gossypii", "assay": "Test Example 12: treated soybean seeds, controlling effect on Aphis gossypii", "assay_type": "in vivo", "method": "In a rotary seed treatment machine (trade name: HEGE11, manufactured by WINTERSTEIGER), soybean seeds (variety:“Hatayutaka”) were treated by smearing treatment using flowable formulation of the present bacterial strain obtained in Formulation Example 14, flupyradifurone liquid formulation (20.0% liquid formulation, trade name: SIVANTO200, Bayer CropScience), thiacloprid flowable formulation (40.0% flowable formulation, trade name: Sonido, Bayer CropScience), thiamethoxam flowable formulation (47.6% flowable formulation, trade name: Cruiser 5FS, Syngenta Crop Protection LCC), so that the soybean seeds retain the present bacterial strain and the compound in the amount shown in Table 5.\nTwenty Aphis gossypii were released on the 14th day after the seeding, and the number of living Aphis gossypii was counted on the 5th day after the release. Similar procedures were conducted using untreated soybean seeds, instead of the treated soybean seeds, as described above for the treated compartment (“untreated compartment”).\nBased on the numbers of survivors in the treated compartment and the untreated compartment, the effect in the treated compartment was calculated by the following equation. Controlling effect=100×[(number of survivors in untreated compartment−number of survivors in treated compartment)/number of survivors in untreated compartment]\n(§1) If the effect by the combination of two active ingredients is greater than that of the estimated value E, which is calculated by the Colby's equation as follows, the effect is regarded as synergistic. E=X+Y−X·Y/100 wherein, • E=Controlling effect when using the mixture of the active ingredients A and B at the concentrations m and n (amount of the active ingredient), respectively. • X=Controlling effect when using the active ingredient A at the concentration m (amount of the active ingredient). • Y=Controlling effect when using the active ingredient B at the concentration n (amount of the active ingredient)."}, "[1]": {"system": "Diabrotica virgifera virgifera", "assay": "Test Example 13: treated corn seeds, controlling effect on Diabrotica virgifera virgifera larvae", "assay_type": "in vivo", "method": "as §1\nIn a rotary seed treatment machine (trade name: HEGE11, manufactured by WINTERSTEIGER), corn seeds (variety: yellow dent corn) were treated by smearing treatment using the wettable powder of the present bacterial strain obtained in Formulation Example 13 or clothianidin flowable formulation (47.8% flowable formulation, trade name: NipsIt Inside Insecticide, Valent U.S.A. Corporation), or imidacloprid flowable formulation (48.7% flowable formulation, trade name: Gaucho 600, Bayer CropScience), so that the corn seeds thus treated retain the present bacterial strain, clothianidin or imidacloprid in the amount shown in Table 6.\nIn a rotary seed treatment machine (trade name: HEGE11, manufactured by WINTERSTEIGER), the corn seeds thus treated with clothianidin or imidacloprid were treated by wet powder coating with a wettable powder of the present bacterial strain as obtained in Formulation Example 13, so that the […] thus treated retain the present bacterial strain and clothianidin or the present bacterial strain and imidacloprid in the amount shown in Table 6.\nNewly hatched larvae of Diabrotica virgifera virgifera are released (10 for each stalk of corn) on the 7th day after the seeding, and the number of living Diabrotica virgifera virgifera was counted on the 10th day after the release. Similar procedures were conducted using untreated corn seeds, instead of the treated corn seeds, as described above for the treated compartment (“untreated compartment”).\nBased on the numbers of survivors in the treated compartment and the untreated compartment, the effect in the treated compartment was calculated by the following equation. Controlling effect=100×[(number of survivors in untreated compartment number of survivors in treated compartment)/number of survivors in untreated compartment]"}}, "data": [{"molecule": "O=C1C=C(N(Cc2ccc(Cl)nc2)CC(F)F)CO1", "note": "[Flupyradifurone, flupyradifurone]", "values": [{"measurement": "Controlling Effect", "setting": "Aphis gossypii; soybean seeds retaining 0.2 g /Kg seeds", "value": 65.9}, {"measurement": "Controlling Effect", "setting": "Aphis gossypii; soybean seeds retaining 0.4 g /Kg seeds", "value": 77.6}]}, {"molecule": "CN1COCN(Cc2cnc(Cl)s2)/C1=N\\[N+](=O)[O-]", "note": "[Thiamethoxam, thiamethoxam]", "values": [{"measurement": "Controlling Effect", "setting": "Aphis gossypii; soybean seeds retaining 0.15 g /Kg seeds", "value": 70.6}, {"measurement": "Controlling Effect", "setting": "Aphis gossypii; soybean seeds retaining 0.25 g /Kg seeds", "value": 78.4}]}, {"molecule": "O=[N+]([O-])NC1=NCCN1Cc1ccc(Cl)nc1", "note": "[Imidacloprid, imidacloprid]", "values": [{"measurement": "Controlling Effect", "setting": "[1]; corn seeds retaining 2.0 g /Kg seeds", "value": 51.4}, {"measurement": "Controlling Effect", "setting": "[1]; corn seeds retaining 2.5 g /Kg seeds", "value": 62.8}]}, {"molecule": "N#C/N=C1\\SCCN1Cc1ccc(Cl)nc1", "note": "[Thiacloprid, thiacloprid]", "values": [{"measurement": "Controlling Effect", "setting": "Aphis gossypii; soybean seeds retaining 0.3 g /Kg seeds", "value": 56.9}, {"measurement": "Controlling Effect", "setting": "Aphis gossypii; soybean seeds retaining 0.45 g /Kg seeds", "value": 69.0}]}, {"molecule": "CN/C(=N\\[N+](=O)[O-])NCc1cnc(Cl)s1", "note": "[Clothianidin, clothianidin]", "values": [{"measurement": "Controlling Effect", "setting": "[1]; corn seeds retaining 0.6 g /Kg seeds", "value": 41.4}, {"measurement": "Controlling Effect", "setting": "[1]; corn seeds retaining 1.2 g /Kg seeds", "value": 64.3}]}]}
